The text below walks through data of patent EP3723746B1, “PHENOXY ACIDS FOR THE TREATMENT OF NEUROMUSCULAR DISORDERS” (NMD Pharma A/S, priority 2017, dated 2019).

The assay deals with T1, CIC-1 channels (Rattus norvegicus, UniProt P35524).
T1 construct: from tissue; host or cells: whole soleus muscle of 12-14 week old Wistar rats
T1 sequence (P35524 1-994): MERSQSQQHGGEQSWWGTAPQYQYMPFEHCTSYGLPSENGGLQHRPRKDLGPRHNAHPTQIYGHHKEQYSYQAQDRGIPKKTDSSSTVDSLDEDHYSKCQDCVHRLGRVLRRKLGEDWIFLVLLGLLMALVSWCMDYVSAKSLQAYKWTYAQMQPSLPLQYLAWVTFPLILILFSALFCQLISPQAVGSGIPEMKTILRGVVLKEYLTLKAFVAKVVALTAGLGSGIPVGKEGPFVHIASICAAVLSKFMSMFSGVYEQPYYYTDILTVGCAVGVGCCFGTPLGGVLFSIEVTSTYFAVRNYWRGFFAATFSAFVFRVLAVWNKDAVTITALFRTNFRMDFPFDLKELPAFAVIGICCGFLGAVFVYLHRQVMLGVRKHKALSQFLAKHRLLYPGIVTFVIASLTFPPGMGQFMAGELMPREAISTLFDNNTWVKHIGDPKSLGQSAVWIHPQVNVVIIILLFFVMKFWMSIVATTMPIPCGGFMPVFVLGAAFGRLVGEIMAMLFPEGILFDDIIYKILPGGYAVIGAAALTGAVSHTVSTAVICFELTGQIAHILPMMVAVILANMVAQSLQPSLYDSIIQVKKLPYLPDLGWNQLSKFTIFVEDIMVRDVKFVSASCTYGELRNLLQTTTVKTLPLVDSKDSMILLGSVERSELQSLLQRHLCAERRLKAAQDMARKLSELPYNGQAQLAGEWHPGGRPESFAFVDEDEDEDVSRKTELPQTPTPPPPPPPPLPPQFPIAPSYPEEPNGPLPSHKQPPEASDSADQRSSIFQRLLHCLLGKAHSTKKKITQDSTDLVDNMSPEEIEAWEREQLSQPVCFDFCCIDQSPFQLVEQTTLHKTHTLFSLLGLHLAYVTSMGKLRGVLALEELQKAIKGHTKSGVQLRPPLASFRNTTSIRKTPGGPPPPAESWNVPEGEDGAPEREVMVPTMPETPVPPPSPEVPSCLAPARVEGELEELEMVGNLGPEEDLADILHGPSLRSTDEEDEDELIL
The experiment in a line: Electrophysiological measurement of compound inhibition of CIC-1 in rat muscle (Gm, three micro-electrode technique, soleus muscle fibres). The assay is classed as cell-based. The conditions noted are these: reduction of Gm in rat soleus muscle fibres, approx. 30°C; mean ± spread, n = number of experiments. The text has this: Table 2: Inhibition of CIC-1 ion channel using compounds of the invention

The term EC50 denotes the concentration giving half of the maximal effect. Higher therefore signals a need for much substance. In turn, `C#Cc1cc(Br)ccc1O[C@@H](C)C(=O)O` [Compound A-19, (2S)-2-(4-bromo-2-ethynylphenoxy)propanoic acid] returned a half-maximal effective concentration (EC50) of 3.5 ± 0.6 µM.
